Test results published in ChEMBL document CHEMBL1201862, “PubChem BioAssay data set” (2004).
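Tested at 5 concentrations; 48 h exposure; 96-well plates; endpoints linearly interpolated, else capped at highest concentration. Abbreviation: GI50, concentration required for 50% inhibition of growth.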 Activity calls are given as the source filed them. Cut-off read from the data, not from the text of the source: active = GI50 up to about 1.1 µM and inactive = higher.

Experiments:
Assay in all cases: inhibition of tumour cell growth, NCI panel, 48 h
[1] = test system: SNB-75
[2] = test system: A498
[3] = test system: NCI-H522
[4] = test system: CCRF-CEM
[5] = test system: IGROV-1
[6] = test system: SNB-78
[7] = test system: RPMI-8226
[8] = test system: XF498
[9] = test system: SF-539
[10] = test system: Malme-3M
[11] = test system: HOP-92
[12] = test system: K562
[13] = test system: SN12C
[14] = test system: HOP-62
[15] = test system: DMS-114
[16] = test system: 786-0
[17] = test system: CAKI-1
[18] = test system: SR
[19] = test system: NCI-H226
[20] = test system: SF-268
[21] = test system: M19-MEL
[22] = test system: DMS-273
[23] = test system: SK-MEL-2
[24] = test system: COLO 205
[25] = test system: ACHN
[26] = test system: MOLT-4
[27] = test system: SK-OV-3
[28] = test system: DLD-1
[29] = test system: HCC 2998
[30] = test system: OVCAR-4
[31] = test system: LXFL 529
[32] = test system: HCT-116
[33] = test system: SK-MEL-28
[34] = test system: NCI-H23
[35] = test system: HL-60
[36] = test system: UACC-62
[37] = test system: UO-31
[38] = test system: M14
[39] = test system: SF-295
[40] = test system: A549
[41] = test system: HT-29
[42] = test system: TK-10
[43] = test system: UACC-257
[44] = test system: EKVX
[45] = test system: OVCAR-8
[46] = test system: SNB-19
[47] = test system: OVCAR-3
[48] = test system: SK-MEL-5
[49] = test system: KM12
[50] = test system: SW-620

Compound: Cc1ncc(CBr)c(CBr)c1O
- GI50 [1]: > 100 µM (inactive)
- GI50 [2]: > 100 µM (inactive)
- GI50 [3]: 55.3 µM (inactive)
- GI50 [4]: 44.7 µM (inactive)
- GI50 [5]: > 100 µM (inactive)
- GI50 [6]: > 100 µM (inactive)
- GI50 [7]: > 100 µM (inactive)
- GI50 [8]: > 100 µM (inactive)
- GI50 [9]: > 100 µM (inactive)
- GI50 [10]: > 100 µM (inactive)
- GI50 [11]: > 100 µM (inactive)
- GI50 [12]: > 100 µM (inactive)
- GI50 [13]: > 100 µM (inactive)
- GI50 [14]: > 100 µM (inactive)
- GI50 [15]: > 100 µM (inactive)
- GI50 [16]: > 100 µM (inactive)
- GI50 [17]: > 100 µM (inactive)
- GI50 [18]: > 100 µM (inactive)
- GI50 [19]: > 100 µM (inactive)
- GI50 [20]: > 100 µM (inactive)
- GI50 [21]: > 100 µM (inactive)
- GI50 [22]: > 100 µM (inactive)
- GI50 [23]: > 100 µM (inactive)
- GI50 [24]: > 100 µM (inactive)
- GI50 [25]: > 100 µM (inactive)
- GI50 [26]: > 100 µM (inactive)
- GI50 [27]: > 100 µM (inactive)
- GI50 [28]: > 100 µM (inactive)
- GI50 [29]: > 100 µM (inactive)
- GI50 [30]: > 100 µM (inactive)
- GI50 [31]: > 100 µM (inactive)
- GI50 [32]: > 100 µM (inactive)
- GI50 [33]: > 100 µM (inactive)
- GI50 [34]: > 100 µM (inactive)
- GI50 [35]: 60.8 µM (inactive)
- GI50 [36]: > 100 µM (inactive)
- GI50 [37]: 89.1 µM (inactive)
- GI50 [38]: > 100 µM (inactive)

Compound: N#CCCN(c1ccc(/C=N/c2ccccc2)cc1)S(=O)(=O)c1ccccc1
- GI50 [1]: > 100 µM (inactive)
- GI50 [2]: > 100 µM (inactive)
- GI50 [39]: 12.4 µM (inactive)
- GI50 [3]: > 100 µM (inactive)
- GI50 [4]: > 100 µM (inactive)
- GI50 [5]: > 100 µM (inactive)
- GI50 [6]: > 100 µM (inactive)
- GI50 [7]: > 100 µM (inactive)
- GI50 [8]: 0.834 µM (active)
- GI50 [40]: > 100 µM (inactive)
- GI50 [41]: 17 µM (inactive)
- GI50 [42]: > 100 µM (inactive)
- GI50 [43]: > 100 µM (inactive)
- GI50 [9]: > 100 µM (inactive)
- GI50 [10]: 41.4 µM (inactive)
- GI50 [11]: > 100 µM (inactive)
- GI50 [12]: 2.97 µM (inactive)
- GI50 [13]: > 100 µM (inactive)
- GI50 [14]: 23.7 µM (inactive)
- GI50 [44]: 35.7 µM (inactive)
- GI50 [45]: > 100 µM (inactive)
- GI50 [15]: > 100 µM (inactive)
- GI50 [16]: > 100 µM (inactive)
- GI50 [17]: > 100 µM (inactive)
- GI50 [18]: > 100 µM (inactive)
- GI50 [46]: > 100 µM (inactive)
- GI50 [19]: > 100 µM (inactive)
- GI50 [20]: > 100 µM (inactive)
- GI50 [21]: > 100 µM (inactive)
- GI50 [47]: > 100 µM (inactive)
- GI50 [48]: > 100 µM (inactive)
- GI50 [22]: > 100 µM (inactive)
- GI50 [23]: > 100 µM (inactive)
- GI50 [24]: > 100 µM (inactive)
- GI50 [49]: 16.5 µM (inactive)
- GI50 [26]: > 100 µM (inactive)
- GI50 [27]: > 100 µM (inactive)
- GI50 [28]: > 100 µM (inactive)
- GI50 [29]: 5.22 µM (inactive)
- GI50 [30]: > 100 µM (inactive)
- GI50 [31]: 4.44 µM (inactive)
- GI50 [32]: > 100 µM (inactive)
- GI50 [33]: > 100 µM (inactive)
- GI50 [50]: > 100 µM (inactive)
- GI50 [34]: > 100 µM (inactive)
- GI50 [35]: 31.1 µM (inactive)
- GI50 [36]: 3.27 µM (inactive)
- GI50 [37]: 17 µM (inactive)
- GI50 [38]: 8.93 µM (inactive)
